Measurements: PMC3857224, “Inhibition of DNA Glycosylases via Small Molecule Purine Analogs” (PLoS ONE, 2013)
pIC50: −log10 of the molar value.

Key:
[1] = system: wild-type MEFs; test: cell survival assay (CellTiter Glo), wild-type MEFs; assay type: cell-based, mouse; conditions: WT MEFs, 72 h exposure
Experimental: (§1) Wild-type or Neil1-KO MEFs were plated in a 96-well opaque walled dish (2000 cells/well) and incubated for 18 h to allow for attachment. Inhibitor (80 µL) diluted in DMEM was added to the cells at various concentrations ranging from 0–20 µM, and incubated for an additional 72 h. Cell viability was measured using the CellTiter Glo reagent (Promega, Madison, WI) and was prepared as per the manufacturer's instructions, with 50 µL of the reconstituted reagent added to each well. Cells were incubated for 10 min on an orbital shaker to induce cell lysis. Survival was measured by luminescence on a microplate reader (TECAN) and normalized to no-treatment control.
(§2) To experimentally address this question, mouse embryo fibroblasts from wild-type and Neil1 knockout mice were treated with increasing concentrations of P2, P6, P7, and P8. Cell survival was measured after a 72 h exposure. For all four compounds, the 37% survival was greater in the Neil1 knockout cells relative to the wild-type. The D37 ratios for WT: Neil1 were as follows: P2: 6∶10 µM; P6: 5∶8 µM; P7: 12∶15 µM; and P8: 7∶11 µM, respectively. […] In addition to modulating BER, there are potentially many other candidate enzymes that may be compromised by the introduction of these compounds, including but not limited to kinases, DNA and RNA polymerases, other DNA repair complexes or helicases. However, given that the concentrations of these compounds are several orders of magnitude higher than what would be considered as a pharmacologically-relevant dose, detailed mechanistic analyses of the current set of compounds is highly premature. Such studies and the development of appropriate cell culture and animal models will need to be generated concomitantly with the evolution of higher affinity, greater specificity molecules.

[2] = system: Neil1-KO MEFs; test: cell survival assay (CellTiter Glo), Neil1-KO MEFs; assay type: cell-based, mouse; conditions: Neil1 knockout MEFs, 72 h exposure
Experimental: as §1, §2

[3] = target: T1, T4 pyrimidine dimer DNA glycosylase (T4-pdg) (Enterobacteria phage T4, UniProt P04418); test: UV-irradiated plasmid nicking assay; assay type: biochemical; conditions: 40 µM inhibitor, 15 min; read-out: inhibition of T4-pdg activity (reduction in nicks per plasmid)
T1 construct: made in house
T1 sequence (P04418 whole entry): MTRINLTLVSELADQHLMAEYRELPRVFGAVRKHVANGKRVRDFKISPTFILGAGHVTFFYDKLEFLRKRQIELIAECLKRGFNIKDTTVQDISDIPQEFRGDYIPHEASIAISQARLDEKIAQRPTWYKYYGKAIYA
Experimental: T4-pdg activity was assayed by a plasmid nicking assay with minor modifications of a previously described method, [27]. Supercoiled pBR322 plasmid was irradiated with 254 nm ultraviolet (UV) light (100 µW/cm^2) for 98 sec to produce approximately 10 thymine dimers per plasmid molecule. Irradiated plasmid (10 nM) was then incubated in the presence or absence of inhibitors with 130 pM active T4-pdg, as assessed by […] trapping. Reactions were started by addition of DNA, incubated for 15 min at 37°C in reaction buffer (10 mM Tris pH 8.0, 1 mM EDTA, 125 mM NaCl, 100 µg/ml BSA), and stopped by the addition of SDS to a final concentration of 1%. Plasmid DNAs (form I, II and III corresponding to supercoiled, nicked circular and linear, respectively) were resolved on a 0.9% agarose gel and visualized with 0.5 µg/ml ethidium bromide. Gel images were captured on a ChemiImager 5500 (Alpha Innotech, Santa Clara, CA) gel documentation system and densitometry was performed using Image J software. Percent remaining form I DNA was calculated by applying a factor of 1.42 to the form I band intensity and then dividing form I by the sum of form I, II and III. The number of nicks per molecule were estimated based on a Poisson distribution, in which nicks per molecule = -ln (mass fraction of form I DNA remaining), and inhibition of activity was measured as the percentage reduction in the number of nicks per plasmid molecule compared to reactions without inhibitor.
In humans, several glycosylases, including OGG1, NTH1, NEIL2, and NEIL3 may participate in the removal of a wide variety of oxidized bases. […] To address this question, assays were designed to measure inhibition of OGG1 and NTH1, as well as the Escherichia coli glycosylase-AP lyase, FPG. In order to compare the relative efficiencies of inhibition between NEIL1 and these other glycosylase/AP lyases, it was necessary to identify common DNA substrates and pair-wise analyze inhibition data. To compare inhibition of NEIL1 versus NTH1, oligodeoxynucleotides were synthesized that contained a site-specific thymine glycol (TG) adduct, while comparative inhibition data for OGG1 and FPG were collected using an oligodeoxynucleotide containing a site-specific 8-oxo-Gua. In control reactions (no inhibitor added), each enzyme generated the expected incised products, confirming the validity of the assay. […] Additionally, experiments were designed to test whether compounds P2, P6, P7, and P8 could inhibit a pyrimidine dimer-specific glycosylase/AP lyase, T4 pyrimidine dimer DNA glycosylase (T4-pdg) that also has an associated AP lyase activity, using an UV-irradiated plasmid nicking assay. […]

[4] = target: T2, NEIL1 (Homo sapiens, UniProt Q96FI4); test: qHTS fluorogenic glycosylase/AP lyase assay, 1536-well, Sp/Gh substrate; assay type: biochemical; conditions: 5 concentrations
T2 construct: made in house
T2 sequence (Q96FI4 whole entry): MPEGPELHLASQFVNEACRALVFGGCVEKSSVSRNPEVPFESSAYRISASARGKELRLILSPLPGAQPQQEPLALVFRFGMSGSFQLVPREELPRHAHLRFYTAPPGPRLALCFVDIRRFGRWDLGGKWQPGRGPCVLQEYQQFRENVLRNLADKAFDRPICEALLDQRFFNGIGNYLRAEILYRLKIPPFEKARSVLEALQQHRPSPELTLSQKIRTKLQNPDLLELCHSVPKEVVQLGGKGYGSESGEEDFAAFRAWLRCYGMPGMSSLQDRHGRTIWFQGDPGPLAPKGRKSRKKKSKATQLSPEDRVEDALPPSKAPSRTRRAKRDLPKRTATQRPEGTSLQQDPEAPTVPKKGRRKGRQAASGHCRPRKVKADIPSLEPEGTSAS
Experimental: The fluorogenic assay was miniaturized to 4 µL in 1536-well black solid plates by optimization of the enzyme and Sp/Gh substrate concentrations. Briefly, 3 µL of 25 nM NEIL1 were dispensed into each well of a 1536-well plate (except buffer in columns 3 and 4 as a negative control). Compounds (DMSO solutions) and control (DMSO only) (23 nL) were transferred to the plate via Kalypsys pintool. The plate was incubated for 15 min at room temperature, and then 1 µL of the Sp/Gh-containing DNA substrate (75 nM final concentration) was added to start the reaction. The plate was immediately transferred into the ViewLux reader for the kinetic fluorescence read. Initial rate data were normalized against uninhibited and no-enzyme controls and the resulting percent activities as a function of compound concentration were fitted using the Hill equation.
Having established the general principle for a glycosylase screening assay, further assay development was undertaken to enable HTS in which the reaction volumes were reduced by 5-fold to a total of 4 µL. Initially, the library of pharmacologically active compounds (LOPAC^1280) was screened for inhibitors of NEIL1 as a determination of the feasibility of this high-throughput method. […] All compounds were screened at 5 different concentrations that allowed for the initial estimation of inhibitory potency (IC50) values, as well as an evaluation of the shape of the response curves. In addition to the anticipated inhibitors (known DNA intercalators, such as ellipticine (IC50 = 2 µM)) and other small molecules that have been previously established to be promiscuous inhibitors (such as aurintricarboxylic acid (IC50<1 µM)), one interesting hit from this screen was CGP-74514A (NCGC ID is NCGC00015229) (Figure 5A). CGP-74514A is a known small molecule inhibitor of Cdk1 in which the structure of this molecule is based on a purine ring backbone.

Row | Structure (SMILES) | D37 (37% survival) [1] [µM] | D37 (37% survival) [2] [µM] | inhibition at 40 µM [3] [%] | pIC50 [4]
1 | Cc1nc2ccc(Nc3nc(Nc4c(C)cc(/C=C/C#N)cc4C)nc4[nH]cnc34)cc2s1 [Purine P6] | 5 | 8 | 32 | 5.10
2 | Cc1cc(/C=C/C#N)cc(C)c1Nc1nc(Nc2ccc3scnc3c2)c2nc[nH]c2n1 [Purine P2] | 6 | 10 | < 1 | 5.40
3 | Cc1cc(/C=C/C#N)cc(C)c1Nc1nc(Nc2ccc3c(c2)OCO3)c2nc[nH]c2n1 [Purine P8] | 7 | 11 | 14 | 5.00
4 | Cc1cc(/C=C/C#N)cc(C)c1Nc1nc(Nc2ccc3c(c2)CCC3)c2nc[nH]c2n1 [Purine P7] | 12 | 15 | 13 | 5.05
